Experimental data from ChEMBL document CHEMBL3045010, “Radical scavenging capacities of some thiazolylthiazolidine-2,4-dione derivatives” (Med Chem Res, 2009).

Tests used:
Assay type in all cases: functional
[1] = tested on: Radical scavenging activity; assay: Antioxidant activity against assessed as DPPH radical scavenging activity at 10 '-3 M after 30 min by spectrophotometry relative to control
[2] = Antioxidant activity against assessed as superoxide scavenging activity measuring reduction of cytochrome C at 10 '-4 M by spectrophotometry relative to control; parameters: scale not given: the % may be the effect or the level left
[3] = tested on: Radical scavenging activity; assay: Antioxidant activity against assessed as DPPH radical scavenging activity at 10 '-4 M after 30 min by spectrophotometry relative to control
[4] = Antioxidant activity against assessed as superoxide scavenging activity measuring reduction of cytochrome C at 10 '-3 M by spectrophotometry relative to control; parameters: scale not given: the % may be the effect or the level left
[5] = tested on: Radical scavenging activity; assay: Antioxidant activity against assessed as DPPH radical scavenging activity at 2 x 10 '-4 M after 30 min by spectrophotometry relative to control
[6] = tested on: Radical scavenging activity; assay: Antioxidant activity against assessed as DPPH radical scavenging activity at 1.25 x 10 '-4 M after 30 min by spectrophotometry relative to control

Compound | Activity [1] | Activity [2] | Activity [3] | Activity [4] | Activity [5] | Activity [6]
O=C1S/C(=C\c2sc(SCc3ccccc3)nc2Cl)C(=O)N1Cc1ccc([N+](=O)[O-])cc1 | 14% | 96% | 43% | 11% |  | 
O=C1S/C(=C\c2sc(Cl)nc2Cl)C(=O)N1Cc1ccccc1 | 12% | 352% | 47% | 154% |  | 
O=C1S/C(=C\c2sc(SCc3ccccc3)nc2Cl)C(=O)N1Cc1ccc(Cl)cc1 | 20% | 91% | 72% | 31% |  | 
O=C1S/C(=C\c2sc(SCc3ccccc3)nc2Cl)C(=O)N1Cc1ccc(F)cc1 | 21% | 98% | 67% | 52% |  | 
O=C1S/C(=C\c2sc(Cl)nc2Cl)C(=O)N1Cc1ccc(Br)cc1 | 9% | 127% | 28% | 124% |  | 
O=C1S/C(=C\c2sc(Cl)nc2Cl)C(=O)N1Cc1ccc(Cl)cc1 | 57% | 32% | 73% | 9% |  | 
O=C1S/C(=C\c2sc(SCc3ccccc3)nc2Cl)C(=O)N1Cc1ccc(Cl)cc1Cl | 20% | 101% | 58% | 16% |  | 
O=C1S/C(=C\c2sc(Cl)nc2Cl)C(=O)N1Cc1ccc(F)cc1 | 11% | 129% | 28% | 73% |  | 
O=C1S/C(=C\c2sc(SCc3ccccc3)nc2Cl)C(=O)N1Cc1ccccc1 | 26% | 86% | 77% | 50% |  | 
O=C1S/C(=C\c2sc(Cl)nc2Cl)C(=O)N1Cc1ccc([N+](=O)[O-])cc1 | 9% | 114% | 52% | 339% |  | 
Cc1cc(C(C)(C)C)c(O)c(C(C)(C)C)c1 | 17% |  |  |  | 37% | 52%
O=C1S/C(=C\c2sc(Cl)nc2Cl)C(=O)N1Cc1ccc(Cl)cc1Cl | 9% | 110% | 12% | 99% |  | 
O=C1S/C(=C\c2sc(SCc3ccccc3)nc2Cl)C(=O)N1Cc1ccc(Br)cc1 | 19% | 88% | 74% | 35% |  | 
